Assay results published in patent US20260022142A1, “MACROCYCLIC IMMUNOMODULATORS” (Bristol-Myers Squibb Company, priority 2022, published 2026).
Bridge positions count the residues as written; N and C are the ends. Square brackets hold non-standard residues; d marks the D form. Peptide text beside a SMILES is read from it. * marks the point of attachment. Phe(F5) = N[C@@H](Cc1c(F)c(F)c(F)c(F)c1F)C(=O)O; Phe(4-COOH) = N[C@@H](Cc1ccc(C(=O)O)cc1)C(=O)O; Phe(2-CF3) = N[C@@H](Cc1ccccc1C(F)(F)F)C(=O)O; Phe(3,5-F2) = N[C@@H](Cc1cc(F)cc(F)c1)C(=O)O; Phe(2,4-F2) = N[C@@H](Cc1ccc(F)cc1F)C(=O)O; Bip = N[C@@H](Cc1ccc(-c2ccccc2)cc1)C(=O)O; Phe(3-F) = N[C@@H](Cc1cccc(F)c1)C(=O)O; Phe(3-Me) = Cc1cccc(C[C@H](N)C(=O)O)c1; Phe(4-F) = N[C@@H](Cc1ccc(F)cc1)C(=O)O; Phe(2-F) = N[C@@H](Cc1ccccc1F)C(=O)O; Val(3-OH) = CC(C)(O)[C@H](N)C(=O)O; Cha = N[C@@H](CC1CCCCC1)C(=O)O; Carboxymethyl = O=C(O)C*; Nle = CCCC[C@H](N)C(=O)O; Orn = NCCC[C@H](N)C(=O)O; Aun = NCCCCCCCCCCC(=O)O; Dab = NCC[C@H](N)C(=O)O; Nva = CCC[C@H](N)C(=O)O; Dap = NC[C@H](N)C(=O)O; AEEA = NCCOCCOCC(=O)O

Molecular target: T1, PD-1/PD-L1 interaction (PE-labeled human PD-L1-Ig binding to Jurkat cell line over-expressing human PD-1) (Homo sapiens, UniProt Q15116)
T1 construct: expressed in transfected cells; host or cells: Jurkat
Assay: Jurkat-PD-1 Cell Binding High-Content Screening Assay (CBA)
Assay type: cell-based
Conditions: Jurkat cell line over-expressing human PD-1; PE-labeled PD-L1-Ig 20 nM final; read-out: Jurkat hPD1-PDL1 IC50
How it was run: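 First, compound is added to PD-1-expressing Jurkat cells in serum-containing DMEM and left 2 h at 37° C. Next, PE-conjugated PD-L1-Ig is introduced at 20 nM final concentration for 1 hour. Finally, cells are fixed in 4% paraformaldehyde with Hoechst 33342, washed and imaged.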

T1 sequence (Q15116 25-288): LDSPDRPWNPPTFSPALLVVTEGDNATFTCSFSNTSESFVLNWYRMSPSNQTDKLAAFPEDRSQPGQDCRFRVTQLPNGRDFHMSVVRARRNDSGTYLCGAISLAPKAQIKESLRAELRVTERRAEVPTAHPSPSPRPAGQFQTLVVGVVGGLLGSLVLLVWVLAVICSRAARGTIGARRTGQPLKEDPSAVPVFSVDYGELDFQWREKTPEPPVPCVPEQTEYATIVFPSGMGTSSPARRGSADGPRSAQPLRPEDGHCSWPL

| Compound | IC50 [nM] |
| --- | --- |
| CCCC[C@@H]1NC(=O)[C@H](CCN)NC(=O)[C@@H](CC(C)C)NC(=O)[C@H](CCCN)NC(=O)[C@H](Cc2ccc(OCC(=O)O)cc2)NC(=O)[C@H](Cc2ccc(-c3ccccc3)cc2)NC(=O)[C@H](Cc2ccc(OCC(=O)O)cc2)NC(=O)[C@H](Cc2cccc(C)c2)NC(=O)[C@H](CC(=O)O)NC(=O)[C@H](Cc2ccc(OCC(=O)O)cc2)NC(=O)[C@H](CN)NC(=O)CSC[C@@H](C(=O)N[C@@H](CCN)C(=O)NCCOCCOCC(=O)NCCCCCCCCCCC(=O)O)NC(=O)[C@H](CCC(=O)O)NC(=O)[C@H](C(C)C)NC1=O [Compound 1258] ({CH2CO}-[Dap]Y(Carboxymethyl)D[Phe(3-Me)]Y(Carboxymethyl)[Bip]Y(Carboxymethyl)[Orn][dL][Dab][Nle]VEC[Dab][AEEA][Aun]-OH; thioether N-14) | 44.6 |
| CCC[C@@H]1NC(=O)[C@H](CCN)NC(=O)[C@@H](CC(C)C)NC(=O)[C@H](CCCN)NC(=O)[C@H](Cc2ccc(OCC(=O)O)cc2)NC(=O)[C@H](Cc2ccc(-c3ccccc3)cc2)NC(=O)[C@H](Cc2ccc(OCC(=O)O)cc2)NC(=O)[C@H](Cc2cccc(C)c2)NC(=O)[C@H](CC(=O)O)NC(=O)[C@H](Cc2ccc(OCC(=O)O)cc2)NC(=O)[C@H](CN)NC(=O)CSC[C@@H](C(=O)N[C@@H](CCN)C(=O)NCCOCCOCC(=O)NCCCCCCCCCCC(=O)O)NC(=O)[C@H](CCC(=O)O)NC(=O)[C@H](C(C)C)NC1=O [Compound 1259] ({CH2CO}-[Dap]Y(Carboxymethyl)D[Phe(3-Me)]Y(Carboxymethyl)[Bip]Y(Carboxymethyl)[Orn][dL][Dab][Nva]VEC[Dab][AEEA][Aun]-OH; thioether N-14) | 153 |
| Cc1cccc(C[C@@H]2NC(=O)[C@H](CC(=O)O)NC(=O)[C@H](Cc3ccc(OCC(=O)O)cc3)NC(=O)[C@H](CN)NC(=O)CSC[C@@H](C(=O)N[C@@H](CCN)C(=O)NCCOCCOCC(=O)NCCCCCCCCCCC(=O)O)NC(=O)[C@H](CCC(=O)O)NC(=O)[C@H](C(C)C)NC(=O)[C@H](Cc3ccccc3F)NC(=O)[C@H](CCN)NC(=O)[C@@H](CC(C)C)NC(=O)[C@H](CCCN)NC(=O)[C@H](Cc3ccc(OCC(=O)O)cc3)NC(=O)[C@H](Cc3ccc(-c4ccccc4)cc3)NC(=O)[C@H](Cc3ccc(C(=O)O)cc3)NC2=O)c1 [Compound 1266] ({CH2CO}-[Dap]Y(Carboxymethyl)D[Phe(3-Me)][Phe(4-COOH)][Bip]Y(Carboxymethyl)[Orn][dL][Dab][Phe(2-F)]VEC[Dab][AEEA][Aun]-OH; thioether N-14) | 14 |
| Cc1cccc(C[C@@H]2NC(=O)[C@H](CC(=O)O)NC(=O)[C@H](Cc3ccc(OCC(=O)O)cc3)NC(=O)[C@H](CN)NC(=O)CSC[C@@H](C(=O)N[C@@H](CCN)C(=O)NCCOCCOCC(=O)NCCCCCCCCCCC(=O)O)NC(=O)[C@H](CCC(=O)O)NC(=O)[C@H](C(C)C)NC(=O)[C@H](Cc3ccccc3C(F)(F)F)NC(=O)[C@H](CCN)NC(=O)[C@@H](CC(C)C)NC(=O)[C@H](CCCN)NC(=O)[C@H](Cc3ccc(OCC(=O)O)cc3)NC(=O)[C@H](Cc3ccc(-c4ccccc4)cc3)NC(=O)[C@H](Cc3ccc(C(=O)O)cc3)NC2=O)c1 [Compound 1267] ({CH2CO}-[Dap]Y(Carboxymethyl)D[Phe(3-Me)][Phe(4-COOH)][Bip]Y(Carboxymethyl)[Orn][dL][Dab][Phe(2-CF3)]VEC[Dab][AEEA][Aun]-OH; thioether N-14) | 15.2 |
| Cc1cccc(C[C@@H]2NC(=O)[C@H](CC(=O)O)NC(=O)[C@H](Cc3ccc(OCC(=O)O)cc3)NC(=O)[C@H](CN)NC(=O)CSC[C@@H](C(=O)N[C@@H](CCN)C(=O)NCCOCCOCC(=O)NCCCCCCCCCCC(=O)O)NC(=O)[C@H](CCC(=O)O)NC(=O)[C@H](C(C)C)NC(=O)[C@H](Cc3ccc(F)cc3)NC(=O)[C@H](CCN)NC(=O)[C@@H](CC(C)C)NC(=O)[C@H](CCCN)NC(=O)[C@H](Cc3ccc(OCC(=O)O)cc3)NC(=O)[C@H](Cc3ccc(-c4ccccc4)cc3)NC(=O)[C@H](Cc3ccc(C(=O)O)cc3)NC2=O)c1 [Compound 1270] ({CH2CO}-[Dap]Y(Carboxymethyl)D[Phe(3-Me)][Phe(4-COOH)][Bip]Y(Carboxymethyl)[Orn][dL][Dab][Phe(4-F)]VEC[Dab][AEEA][Aun]-OH; thioether N-14) | 48.4 |
| Cc1cccc(C[C@@H]2NC(=O)[C@H](CC(=O)O)NC(=O)[C@H](Cc3ccc(OCC(=O)O)cc3)NC(=O)[C@H](CN)NC(=O)CSC[C@@H](C(=O)N[C@@H](CCN)C(=O)NCCOCCOCC(=O)NCCCCCCCCCCC(=O)O)NC(=O)[C@H](CCC(=O)O)NC(=O)[C@H](C(C)C)NC(=O)[C@H](Cc3cccc(C)c3)NC(=O)[C@H](CCN)NC(=O)[C@@H](CC(C)C)NC(=O)[C@H](CCCN)NC(=O)[C@H](Cc3ccc(OCC(=O)O)cc3)NC(=O)[C@H](Cc3ccc(-c4ccccc4)cc3)NC(=O)[C@H](Cc3ccc(C(=O)O)cc3)NC2=O)c1 [Compound 1271] ({CH2CO}-[Dap]Y(Carboxymethyl)D[Phe(3-Me)][Phe(4-COOH)][Bip]Y(Carboxymethyl)[Orn][dL][Dab][Phe(3-Me)]VEC[Dab][AEEA][Aun]-OH; thioether N-14) | 19.9 |
| Cc1cccc(C[C@@H]2NC(=O)[C@H](CC(=O)O)NC(=O)[C@H](Cc3ccc(OCC(=O)O)cc3)NC(=O)[C@H](CN)NC(=O)CSC[C@@H](C(=O)N[C@@H](CCN)C(=O)NCCOCCOCC(=O)NCCCCCCCCCCC(=O)O)NC(=O)[C@H](CCC(=O)O)NC(=O)[C@H](C(C)C)NC(=O)[C@H](Cc3ccc(F)cc3F)NC(=O)[C@H](CCN)NC(=O)[C@@H](CC(C)C)NC(=O)[C@H](CCCN)NC(=O)[C@H](Cc3ccc(OCC(=O)O)cc3)NC(=O)[C@H](Cc3ccc(-c4ccccc4)cc3)NC(=O)[C@H](Cc3ccc(C(=O)O)cc3)NC2=O)c1 [Compound 1272] ({CH2CO}-[Dap]Y(Carboxymethyl)D[Phe(3-Me)][Phe(4-COOH)][Bip]Y(Carboxymethyl)[Orn][dL][Dab][Phe(2,4-F2)]VEC[Dab][AEEA][Aun]-OH; thioether N-14) | 74.2 |
| Cc1cccc(C[C@@H]2NC(=O)[C@H](CC(=O)O)NC(=O)[C@H](Cc3ccc(OCC(=O)O)cc3)NC(=O)[C@H](CN)NC(=O)CSC[C@@H](C(=O)N[C@@H](CCN)C(=O)NCCOCCOCC(=O)NCCCCCCCCCCC(=O)O)NC(=O)[C@H](CCC(=O)O)NC(=O)[C@H](C(C)C)NC(=O)[C@H](Cc3c(F)c(F)c(F)c(F)c3F)NC(=O)[C@H](CCN)NC(=O)[C@@H](CC(C)C)NC(=O)[C@H](CCCN)NC(=O)[C@H](Cc3ccc(OCC(=O)O)cc3)NC(=O)[C@H](Cc3ccc(-c4ccccc4)cc3)NC(=O)[C@H](Cc3ccc(C(=O)O)cc3)NC2=O)c1 [Compound 1273] ({CH2CO}-[Dap]Y(Carboxymethyl)D[Phe(3-Me)][Phe(4-COOH)][Bip]Y(Carboxymethyl)[Orn][dL][Dab][Phe(F5)]VEC[Dab][AEEA][Aun]-OH; thioether N-14) | 331 |

Stronger by IC50, values ahead:

| IC50 [nM] | Compound |
| --- | --- |
| 13.2 | Cc1cccc(C[C@@H]2NC(=O)[C@H](CC(=O)O)NC(=O)[C@H](Cc3ccc(OCC(=O)O)cc3)NC(=O)[C@H](CN)NC(=O)CSC[C@@H](C(=O)N[C@@H](CCN)C(=O)NCCOCCOCC(=O)NCCCCCCCCCCC(=O)O)NC(=O)[C@H](CCC(=O)O)NC(=O)[C@H](C(C)C)NC(=O)[C@H](Cc3cccc(F)c3)NC(=O)[C@H](CCN)NC(=O)[C@@H](CC(C)C)NC(=O)[C@H](CCCN)NC(=O)[C@H](Cc3ccc(OCC(=O)O)cc3)NC(=O)[C@H](Cc3ccc(-c4ccccc4)cc3)NC(=O)[C@H](Cc3ccc(C(=O)O)cc3)NC2=O)c1 [Compound 1268] ({CH2CO}-[Dap]Y(Carboxymethyl)D[Phe(3-Me)][Phe(4-COOH)][Bip]Y(Carboxymethyl)[Orn][dL][Dab][Phe(3-F)]VEC[Dab][AEEA][Aun]-OH; thioether N-14) |
| 11.4 | Cc1cccc(C[C@@H]2NC(=O)[C@H](CC(=O)O)NC(=O)[C@H](Cc3ccc(OCC(=O)O)cc3)NC(=O)[C@H](CN)NC(=O)CSC[C@@H](C(=O)N[C@@H](CCN)C(=O)NCCOCCOCC(=O)NCCCCCCCCCCC(=O)O)NC(=O)[C@H](CCC(=O)O)NC(=O)[C@H](C(C)C)NC(=O)[C@H](Cc3cc(F)cc(F)c3)NC(=O)[C@H](CCN)NC(=O)[C@@H](CC(C)C)NC(=O)[C@H](CCCN)NC(=O)[C@H](Cc3ccc(OCC(=O)O)cc3)NC(=O)[C@H](Cc3ccc(-c4ccccc4)cc3)NC(=O)[C@H](Cc3ccc(C(=O)O)cc3)NC2=O)c1 [Compound 1269] ({CH2CO}-[Dap]Y(Carboxymethyl)D[Phe(3-Me)][Phe(4-COOH)][Bip]Y(Carboxymethyl)[Orn][dL][Dab][Phe(3,5-F2)]VEC[Dab][AEEA][Aun]-OH; thioether N-14) |
| 9.3 | Cc1cccc(C[C@@H]2NC(=O)[C@H](CC(=O)O)NC(=O)[C@H](Cc3ccc(OCC(=O)O)cc3)NC(=O)[C@H](CN)NC(=O)CSC[C@@H](C(=O)N[C@@H](CCN)C(=O)NCCOCCOCC(=O)NCCCCCCCCCCC(=O)O)NC(=O)[C@H](CCC(=O)O)NC(=O)[C@H](C(C)C)NC(=O)[C@H](Cc3ccccc3)NC(=O)[C@H](CCN)NC(=O)[C@@H](CC(C)C)NC(=O)[C@H](CCCN)NC(=O)[C@H](Cc3ccc(OCC(=O)O)cc3)NC(=O)[C@H](Cc3ccc(-c4ccccc4)cc3)NC(=O)[C@H](Cc3ccc(OCC(=O)O)cc3)NC2=O)c1 [Compound 1261] ({CH2CO}-[Dap]Y(Carboxymethyl)D[Phe(3-Me)]Y(Carboxymethyl)[Bip]Y(Carboxymethyl)[Orn][dL][Dab]FVEC[Dab][AEEA][Aun]-OH; thioether N-14) |
| 5.6 | Cc1cccc(C[C@@H]2NC(=O)[C@H](CC(=O)O)NC(=O)[C@H](Cc3ccc(OCC(=O)O)cc3)NC(=O)[C@H](CC3CCCCC3)NC(=O)CSC[C@@H](C(=O)N[C@@H](CCN)C(=O)NCCOCCOCC(=O)NCCCCCCCCCCC(=O)O)NC(=O)[C@H](CO)NC(=O)[C@H](C(C)(C)O)NC(=O)[C@H](CC3CCCCC3)NC(=O)[C@H](CCN)NC(=O)[C@@H](CC(C)C)NC(=O)[C@H](CCCN)NC(=O)[C@H](Cc3ccc(OCC(=O)O)cc3)NC(=O)[C@H](Cc3ccc(-c4ccccc4)cc3)NC(=O)[C@H](Cc3ccc(OCC(=O)O)cc3)NC2=O)c1 [Compound 1263] ({CH2CO}-[Cha]Y(Carboxymethyl)D[Phe(3-Me)]Y(Carboxymethyl)[Bip]Y(Carboxymethyl)[Orn][dL][Dab][Cha][Val(3-OH)]SC[Dab][AEEA][Aun]-OH; thioether N-14) |
